Results: ChEMBL document CHEMBL1147331, “Cytotoxic and antimalarial bisbenzylisoquinoline alkaloids from Stephania erecta” (J Nat Prod, 1993)
≈ marks a conversion by molar mass, not a printed value.

Experiments:
in vitro [1] = conditions: human, A431 cells
Description: Selectivity index, ratio of ED50 for human A431 cells to ED50 for chloroquine-resistant Plasmodium falciparum W2

[2] = Selectivity index, ratio of ED50 for human COL1 cells to ED50 for chloroquine-resistant Plasmodium falciparum W2; assay type: toxicity, cell-based; conditions: read-out: Ratio ED50
in vitro [3] = conditions: human, A431 cells; remark: listed apart in the source
Description: Selectivity index, ratio of ED50 for human A431 cells to ED50 for chloroquine-sensitive Plasmodium falciparum D6

[4] = Cytotoxicity against human ZR-75-1 cells after 3 days by sulforhodamine B assay; assay type: cell-based; conditions: read-out: ED50
[5] = Selectivity index, ratio of ED50 for human BCA1 cells to ED50 for chloroquine-resistant Plasmodium falciparum W2; assay type: toxicity, cell-based; conditions: read-out: Ratio ED50
[6] = Cytotoxicity against human SK-MEL-2 cells after 3 days by sulforhodamine B assay; assay type: cell-based; conditions: read-out: ED50
[7] = Selectivity index, ratio of ED50 for human KB-V1 cells to ED50 for chloroquine-resistant Plasmodium falciparum W2; assay type: toxicity, cell-based; conditions: read-out: Ratio ED50
Plasmodium falciparum [8] = experiment: Antimalarial activity after 24 hrs against chloroquine-resistant Plasmodium falciparum W2 infected type A+ human erythrocytes by [3H]hypoxanthine uptake; assay type: functional; conditions: read-out: ED50 (the source's name)
[9] = Selectivity index, ratio of ED50 for human LNCaP cells to ED50 for chloroquine-resistant Plasmodium falciparum W2; assay type: toxicity, cell-based; conditions: read-out: Ratio ED50
[10] = Cytotoxicity against human BCA1 cells after 3 days by sulforhodamine B assay; assay type: cell-based; conditions: read-out: ED50
[11] = Selectivity index, ratio of ED50 for human ZR-75-1 cells to ED50 for chloroquine-resistant Plasmodium falciparum W2; assay type: toxicity, cell-based; conditions: read-out: Ratio ED50
in vitro [12] = conditions: mouse, P388 cells
Description: Selectivity index, ratio of ED50 for mice (Mus musculus) P388 cells to ED50 for chloroquine-sensitive Plasmodium falciparum D6

[13] = Cytotoxicity against human KB cells after 3 days by sulforhodamine B assay; assay type: cell-based; conditions: read-out: ED50
[14] = Selectivity index, ratio of ED50 for human HT1080 cells to ED50 for chloroquine-resistant Plasmodium falciparum W2; assay type: toxicity, cell-based, HT-1080; conditions: read-out: Ratio ED50
[15] = Selectivity index, ratio of ED50 for human MEL2 cells to ED50 for chloroquine-resistant Plasmodium falciparum W2; assay type: toxicity, cell-based; conditions: read-out: Ratio ED50
[16] = Cytotoxicity against human LNCAP cells after 3 days by sulforhodamine B assay; assay type: cell-based; conditions: read-out: ED50
[17] = Selectivity index, ratio of ED50 for human KB cells to ED50 for chloroquine-resistant Plasmodium falciparum W2; assay type: toxicity, cell-based; conditions: read-out: Ratio ED50
[18] = Selectivity index, ratio of ED50 for human KB-V1 cells to ED50 for chloroquine-sensitive Plasmodium falciparum D6; assay type: toxicity, cell-based; conditions: read-out: Ratio ED50
[19] = Selectivity index, ratio of ED50 for human COL1 cells to ED50 for chloroquine-sensitive Plasmodium falciparum D6; assay type: toxicity, cell-based; conditions: read-out: Ratio ED50
[20] = Selectivity index, ratio of ED50 for human LNCaP cells to ED50 for chloroquine-sensitive Plasmodium falciparum D6; assay type: toxicity, cell-based; conditions: read-out: Ratio ED50
[21] = Cytotoxicity against mouse P388 cells after 2 days by sulforhodamine B assay; assay type: cell-based; conditions: read-out: ED50
[22] = Selectivity index, ratio of ED50 for human LUC1 cells to ED50 for chloroquine-sensitive Plasmodium falciparum D6; assay type: toxicity, cell-based; conditions: read-out: Ratio ED50
in vitro [23] = conditions: mouse, P388 cells; remark: listed apart in the source
Description: Selectivity index, ratio of ED50 for mice (Mus musculus) P388 cells to ED50 for chloroquine-resistant Plasmodium falciparum W2

[24] = Cytotoxicity against human LUC1 cells after 3 days by sulforhodamine B assay; assay type: cell-based; conditions: read-out: ED50
[25] = Cytotoxicity against human HT1080 cells after 3 days by sulforhodamine B assay; assay type: cell-based, HT-1080; conditions: read-out: ED50
[26] = Selectivity index, ratio of ED50 for human ZR-75-1 cells to ED50 for chloroquine-sensitive Plasmodium falciparum D6; assay type: toxicity, cell-based; conditions: read-out: Ratio ED50
[27] = Cytotoxicity against human Col1 cells after 3 days by sulforhodamine B assay; assay type: cell-based; conditions: read-out: ED50
[28] = Selectivity index, ratio of ED50 for human HT1080 cells to ED50 for chloroquine-sensitive Plasmodium falciparum D6; assay type: toxicity, cell-based, HT-1080; conditions: read-out: Ratio ED50
[29] = Selectivity index, ratio of ED50 for human BCA1 cells to ED50 for chloroquine-sensitive Plasmodium falciparum D6; assay type: toxicity, cell-based; conditions: read-out: Ratio ED50
[30] = Selectivity index, ratio of ED50 for human MEL2 cells to ED50 for chloroquine-sensitive Plasmodium falciparum D6; assay type: toxicity, cell-based; conditions: read-out: Ratio ED50
Plasmodium falciparum [31] = experiment: Antimalarial activity after 24 hrs against chloroquine-sensitive Plasmodium falciparum D6 infected type A+ human erythrocytes by [3H]hypoxanthine uptake; assay type: functional; conditions: read-out: ED50 (the source's name)
[32] = Selectivity index, ratio of ED50 for human LUC1 cells to ED50 for chloroquine-resistant Plasmodium falciparum W2; assay type: toxicity, cell-based; conditions: read-out: Ratio ED50
[33] = Selectivity index, ratio of ED50 for human KB cells to ED50 for chloroquine-sensitive Plasmodium falciparum D6; assay type: toxicity, cell-based; conditions: read-out: Ratio ED50
[34] = Cytotoxicity against human KBV1 cells after 3 days by sulforhodamine B assay; assay type: cell-based, KB-V1; conditions: read-out: ED50
[35] = Cytotoxicity against human A431 cells after 3 days by sulforhodamine B assay; assay type: cell-based, A-431; conditions: read-out: ED50

Row | Compound | selectivity ratio (in vitro [1]) | selectivity ratio [2] | selectivity ratio (in vitro [3]) | CC50 at 72 h [4] [µg/mL] | selectivity ratio [5] | CC50 at 72 h [6] [µg/mL] | selectivity ratio [7] | EC50 (Plasmodium falciparum [8]) [µg/mL] | selectivity ratio [9] | CC50 at 72 h [10] [µg/mL] | selectivity ratio [11] | selectivity ratio (in vitro [12]) | CC50 at 72 h [13] [µg/mL] | selectivity ratio [14] | selectivity ratio [15] | CC50 at 72 h [16] [µg/mL] | selectivity ratio [17] | selectivity ratio [18] | selectivity ratio [19] | selectivity ratio [20] | other results
1 | COc1ccc2cc1Oc1ccc(cc1)C[C@H]1c3cc(c(OC)cc3CCN1C)Oc1c(O)c(OC)cc3c1[C@@H](C2)N(C)CC3 | 21 | 48 | 41 | 2.5 (≈ 4.11 µM) | 22 | 14.9 (≈ 24.5 µM) | 16 | 0.23 (≈ 0.377 µM) | 26 | 5 (≈ 8.21 µM) | 11 | 61 | 6.5 (≈ 10.7 µM) | 44 | 65 | 5.9 (≈ 9.69 µM) | 28 | 31 | 92 | 49 | CC50 at 48 h [21]: 7.4 µg/mL (≈ 12.2 µM); selectivity ratio [22]: 80; selectivity ratio (in vitro [23]): 32; CC50 at 72 h [24]: 9.7 µg/mL (≈ 15.9 µM); CC50 at 72 h [25]: 10 µg/mL (≈ 16.4 µM); selectivity ratio [26]: 21; CC50 at 72 h [27]: 11.1 µg/mL (≈ 18.2 µM); selectivity ratio [28]: 83; selectivity ratio [29]: 42; selectivity ratio [30]: 124; EC50 (Plasmodium falciparum [31]): 0.121 µg/mL (≈ 0.198 µM); selectivity ratio [32]: 42; selectivity ratio [33]: 54; CC50 at 72 h [34]: 3.7 µg/mL (≈ 6.08 µM); CC50 at 72 h [35]: 4.9 µg/mL (≈ 8.05 µM)
2 | COc1ccc2cc1Oc1ccc(cc1)C[C@H]1c3c(cc4c(c3Oc3cc5c(cc3OC)CCN[C@@H]5C2)OCO4)CCN1C | 14 | 24 | 39 | 0.9 (≈ 1.52 µM) | 13 | 10.5 (≈ 17.7 µM) | 11 | 0.129 (≈ 0.218 µM) | 23 | 1.7 (≈ 2.87 µM) | 7 | 2 | 3.9 (≈ 6.58 µM) | 15 | 81 | 3 (≈ 5.06 µM) | 30 | 30 | 67 | 64 | CC50 at 48 h [21]: 0.1 µg/mL (≈ 0.169 µM); selectivity ratio [22]: 43; selectivity ratio (in vitro [23]): 1; CC50 at 72 h [24]: 2 µg/mL (≈ 3.37 µM); CC50 at 72 h [25]: 1.9 µg/mL (≈ 3.21 µM); selectivity ratio [26]: 19; CC50 at 72 h [27]: 3.1 µg/mL (≈ 5.23 µM); selectivity ratio [28]: 41; selectivity ratio [29]: 36; selectivity ratio [30]: 225; EC50 (Plasmodium falciparum [31]): 0.0466 µg/mL (≈ 0.0786 µM); selectivity ratio [32]: 16; selectivity ratio [33]: 84; CC50 at 72 h [34]: 1.4 µg/mL (≈ 2.36 µM); CC50 at 72 h [35]: 1.8 µg/mL (≈ 3.04 µM)
3 | COc1ccc2cc1Oc1ccc(cc1)C[C@H]1c3c(cc(OC)c(O)c3Oc3cc4c(cc3OC)CCN(C)[C@@H]4C2)CCN1C [HOMOAROMOLINE] | 31 | 35 | 85 | 1.2 (≈ 1.97 µM) | 13 | 9 (≈ 14.8 µM) | 11 | 0.288 (≈ 0.474 µM) | 12 | 3.6 (≈ 5.91 µM) | 7 | 35 | 6.3 (≈ 10.3 µM) | 31 | 31 | 3.4 (≈ 5.59 µM) | 22 | 30 | 96 | 33 | CC50 at 48 h [21]: 3.7 µg/mL (≈ 6.08 µM); selectivity ratio [22]: 93; selectivity ratio (in vitro [23]): 13; CC50 at 72 h [24]: 8.6 µg/mL (≈ 14.1 µM); CC50 at 72 h [25]: 9 µg/mL (≈ 14.8 µM); selectivity ratio [26]: 19; CC50 at 72 h [27]: 10 µg/mL (≈ 16.4 µM); selectivity ratio [28]: 86; selectivity ratio [29]: 34; selectivity ratio [30]: 86; EC50 (Plasmodium falciparum [31]): 0.105 µg/mL (≈ 0.172 µM); selectivity ratio [32]: 34; selectivity ratio [33]: 60; CC50 at 72 h [34]: 3.1 µg/mL (≈ 5.09 µM); CC50 at 72 h [35]: 8.9 µg/mL (≈ 14.6 µM)
